Assay results taken from article PMC8344022, “Small-molecule inhibitor of AF9/ENL-DOT1L/AF4/AFF4 interactions suppresses malignant gene expression and tumor growth” (Theranostics, 2021).
“And” between values parts separate entries of the source, which are not always exact repeats. Identical values can stand only once.

Legend:
[1] = target: T1, AF9-DOT1L interaction (Homo sapiens, UniProt P42568); assay: Alpha assay, AF9 AHD-DOT1L peptide interaction; type: binding; conditions: read-out: IC50, inhibition of AF9-DOT1L interaction
T1 construct: cDNA for human AF9 AHD domain (475-568) and ENL AHD domain (489-559) was synthesized; made in house; host or cells: E. coli BL21(DE3)
T1 sequence (P42568 475-568): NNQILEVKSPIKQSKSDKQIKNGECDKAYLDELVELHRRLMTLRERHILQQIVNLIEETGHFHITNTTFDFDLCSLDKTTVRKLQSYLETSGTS
Description: We developed an Alpha (amplified luminescent proximity homogeneous assay) assay to determine the binding and inhibition of the PPI between maltose-binding protein (MBP)-tagged AF9 AHD and a biotin-labeled DOT1L peptide, using AlphaLisa streptavidin donor beads and anti-MBP acceptor beads. Laser excitation to the donor beads generates singlet oxygen radicals, which can travel for <200 nm in solution and cannot reach the free acceptor beads. The PPI brings the DOT1L coated donor beads and AHD coated acceptor beads together, allowing the radicals to activate the acceptor beads and produce luminescence. […] We also developed a fluorescence polarization (FP) assay. A fluorescein-labeled DOT1L peptide has a higher freedom in solution with a lower polarization value.
(§1) Alpha assays. Alpha assays were developed using Perkin-Elmer AlphaLisa anti-MBP kit, which contains streptavidin donor beads and anti-MBP acceptor beads. The assay was performed using a MBP-protein (5 nM), a biotinylated peptide (40 nM), and increasing concentrations of a compound in 25 µL buffer (PBS with 0.5 % BSA, pH 7.5) in 384-well plates according to the manufacturer's protocol and measured with a Tecan SPARK microplate reader. Data were imported into Prism (version 5.0), and IC50 values from 3 independent experiments with standard deviation were obtained by using a standard dose-response curve fitting.

[2] = system: MV4;11 leukemia xenograft; assay: Subcutaneous MV4;11 xenograft antitumor study; type: in vivo, NOD-SCID mice; conditions: 15 mg/kg/day i.p. for 10 days; two cohorts (N = 6 and 8; p < 0.01 and 0.05)
Description: In vivo antitumor activity of compound 1 was evaluated in a commonly used mouse model of MLL-r leukemia, [26]. 10^7 MV4;11 cells in 0.1 mL of saline and Matrigel (1:1) were injected subcutaneously into NOD-SCID mice, which can develop palpable tumors in ~2 weeks.
In vivo antitumor studies. All of the mouse studies were conducted in strict compliance with an IRB-approved protocol. NOD-SCID mice (4 to 6 weeks old, from Jackson lab) were obtained and maintained under specific pathogen-free conditions. 10^7 MV4;11 cells in medical grade saline and Matrigel (1:1, 0.1 mL) were inoculated subcutaneously and palpable tumors (2-3 mm in diameter) were developed in ~ 2 weeks. Mice were treated with compound 1 (15 mg/kg/day for 10 days) in saline (0.1 mL) administered intraperitoneally. Tumors were measured every 2 days and estimated by using the formula a×b^2/2.

[3] = system: MLL-r leukemia cells; assay: Cytospin/Wright-Giemsa staining; type: cell-based; conditions: 5 μM for 5 days
Description: Cytospin/Wrigth-Giemsa staining. The MV4;11 and Molm-13 cells were plated in 6-well plates (2.5 mL/well) at an initial concentration of 10^5 cells/mL and treated with a compound or DMSO at 37 °C in a 5% CO2 incubator for 5 days. Cytospins were performed to smear cells (100 µL, 10^6 cells/mL) on slide. After air dry, the slides were Wright's-Giemsa stained and air-dried for over 30 mins before examination.

[4] = system: Molm-13 cells; assay: Flow cytometry for CD14 and CD11b (differentiation); type: cell-based, human; conditions: 5 μM for 5 days
Description: Compound 1 (5 μM for 5 days) induced significant differentiation, with more cell populations expressing CD14 and CD11b, two cell surface proteins for macrophages/monocytes (Figure 5B).
Flow cytometry. For Annexin V apoptosis assay, 10^5 cells/ml were incubated with increasing concentrations of a compound for 5 days. Apoptosis was determined using the FITC Annexin V Apoptosis Detection Kit I (BD Bioscience) using the manufacturer's protocol. For other FACS assays, cells were labeled with fluorochrome-conjugated monoclonal antibodies against human CD14 and CD11b (BD Biosciences) according to the manufacturer's recommendation. Cells were analyzed using a FACS Calibur (BD Biosciences/Applied Biosystems) and data were processed using the program Flowjo (version7.6.5).

[5] = system: cytoplasmic protein levels in MV4;11 cells; assay: Western blot of cytoplasmic proteins; type: cell-based; conditions: 3 days, except for ENL at 15 µM
Description: (§2) Figure S4. The cytoplasmic protein levels after treatment with Cpd-1 for 3 days. (A) In contrast to the protein
(§3) me2, ENL and AFF4 in MV4;11 cells, except for ENL at 15 µM.
(§4) (1 picture or pasted object on this page, not shown here)

[6] = system: cytoplasmic protein levels in Molm-13 cells; assay: Western blot of cytoplasmic proteins; type: cell-based; conditions: 3 days
Description: as §2, §3, §4

[7] = system: U266 cells; assay: Antiproliferation assay (XTT); type: cell-based; conditions: Homo sapiens, U-266, 168 h, 7-day incubation, read-out: Cytotoxicity EC50
Description: (§5) Antiproliferation assay. Proliferation inhibition assays for suspension blood cancer cells were performed using an XTT assay kit (Roche). Proliferation inhibition assays for solid tumor cell lines MCF-7, MDA-MB-231, Panc1, Panc28 were performed using an MTT assay (Sigma). The antiproliferation EC50 values were determined using Prism 5 and the reported results were the mean values of at least three independent experiments. The incubation time for compound 1 was 7 days and that for EPZ4777 was 14 days.

[8] = system: RPMI-8226 cells; assay: Antiproliferation assay (XTT); type: cell-based; conditions: Homo sapiens, 168 h, 7-day incubation, read-out: Cytotoxicity EC50
Description: as §5

[9] = system: Jurkat cells; assay: Antiproliferation assay (XTT); type: cell-based; conditions: Homo sapiens, 168 h, 7-day incubation, read-out: Cytotoxicity EC50
Description: as §5

[10] = system: MV4;11 cells; assay: Antiproliferation assay (XTT); type: cell-based; conditions: Homo sapiens, 168 h, 7-day incubation, read-out: Cytotoxicity EC50
Description: as §5

[11] = system: Molm-13 cells; assay: Antiproliferation assay (XTT); type: cell-based
Description: as §5

[12] = system: HL60 cells; assay: Antiproliferation assay (XTT); type: cell-based; conditions: Homo sapiens, HL-60, 168 h, 7-day incubation, read-out: Cytotoxicity EC50
Description: as §5

[13] = system: THP-1 cells; assay: Antiproliferation assay (XTT); type: cell-based; conditions: Homo sapiens, 168 h, 7-day incubation, read-out: Cytotoxicity EC50
Description: as §5

[14] = system: Kasumi-1 cells; assay: Antiproliferation assay (XTT); type: cell-based; conditions: Homo sapiens, 168 h, 7-day incubation, read-out: Cytotoxicity EC50
Description: as §5

[15] = target: T2, ENL-AF4 interaction (Homo sapiens, UniProt Q03111); assay: Alpha assay, ENL-AF4 interaction; type: binding; conditions: read-out: IC50, inhibition of ENL-AF4 interaction
T2 construct: ENL AHD domain (489-559) was synthesized (by Genscript) and inserted into the pMAL c5X expression plasmid; made in house; host or cells: E. coli BL21(DE3)
Description: ENL is also a major MLL fusion partner (~10%). The AHD domains of human ENL and AF9 share a high homology with 82% identity and 89% similarity (Figure S1A). […] Our attempts to develop an Alpha assay for ENL-DOT1L failed. […] Compound 1's activity against ENL-DOT1L was therefore not determined.
as §1

T2 sequence (Q03111 489-559): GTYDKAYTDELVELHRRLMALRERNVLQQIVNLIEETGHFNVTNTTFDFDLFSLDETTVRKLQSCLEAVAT

CC(C)(C)c1ccc(-n2cc(C(=O)NC3CCNCC3)nc2-c2ccccc2)cc1 [Compound 1]
IC50 [1]: 3.5 µM | Tumor growth [2]: significantly inhibited tumor growth | Cell phenotype by Giemsa staining [3]: more differentiated phenotype with reduced nucleus | Differentiation: cells expressing CD14 and CD11b [4]: significantly more cells expressing high levels of CD14 and CD11b | Cytoplasmic protein levels of H3K79me1 and me2, ENL and AFF4 [5]: did not significantly reduce | Cytoplasmic levels of H3K79me1 and me2, ENL and AFF4 [6]: did not significantly reduce | EC50 [7]: 7.9 ± 0.4 µM | EC50 [8]: 3.3 ± 0.1 µM | EC50 [9]: 9.7 ± 0.3 µM | EC50 [10]: 4.7 ± 0.4 µM | Inhibition of cell proliferation ([11]; 10 μM, Day-2 or 3): did not significantly inhibit | inhibition at 10 µM ([11]; Homo sapiens, 10 μM, Day-5, read-out: Inhibition of cell proliferation): > 90% | EC50 ([11]; Homo sapiens, 168 h, 7-day incubation, read-out: Cytotoxicity EC50): 4.9 ± 0.1 µM | EC50 [12]: 7.3 ± 0.1 µM | EC50 [13]: 11.4 ± 0.6 µM | EC50 [14]: 8.9 ± 0.3 µM | IC50 [15]: 900 nM and 940 nM
